Laboratory results taken from ChEMBL document CHEMBL1137593, “Identification and optimisation of a series of substituted 5-pyridin-2-yl-thiophene-2-hydroxamic acids as potent histone deacetylase (HDAC) inhibitors” (Bioorg Med Chem Lett, 2007).
Values belong to the compound of their own block, whether it stands above or below them.

Experiments:
Histone deacetylase 1 = Histone deacetylase 1 (Homo sapiens, UniProt Q13547); assay: Inhibition of HDAC activity measured by HDAC Fluorescent Activity Assay (mean of two experiments); format: functional
Sequence of Histone deacetylase 1 (Q13547 whole entry): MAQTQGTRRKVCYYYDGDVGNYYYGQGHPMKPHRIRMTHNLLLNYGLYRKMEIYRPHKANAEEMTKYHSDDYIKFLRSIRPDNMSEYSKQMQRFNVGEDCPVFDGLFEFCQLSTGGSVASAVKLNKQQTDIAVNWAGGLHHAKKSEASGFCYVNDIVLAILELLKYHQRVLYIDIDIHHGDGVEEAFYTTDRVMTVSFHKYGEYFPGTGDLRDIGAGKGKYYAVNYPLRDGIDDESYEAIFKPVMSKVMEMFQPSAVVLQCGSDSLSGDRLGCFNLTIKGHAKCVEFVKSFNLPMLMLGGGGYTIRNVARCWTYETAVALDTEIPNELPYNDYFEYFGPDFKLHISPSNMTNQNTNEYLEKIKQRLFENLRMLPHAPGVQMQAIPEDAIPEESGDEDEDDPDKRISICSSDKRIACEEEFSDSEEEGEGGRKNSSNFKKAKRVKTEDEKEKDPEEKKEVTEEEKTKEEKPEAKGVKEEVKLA

MCF7 = assay: Inhibition of MCF7 cell proliferation (mean of two experiments); format: functional, cell-based; settings: Homo sapiens
HCT-116 = assay: cells; format: functional, cell-based; settings: Homo sapiens;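 also: inhibition of HCT116 cell growth as proliferation read-out, each value averaged over two experiments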
Description: Inhibition of HCT116 cell proliferation (mean of two experiments)

MDA-MB-231 = assay: cells; format: functional, cell-based; settings: Homo sapiens
Description: Inhibition of MDA-MB-231 cell proliferation (mean of two experiments)

[1] = AUC after i.p. dosing at 5 mg kg-1; format: ADME, organism-based; design: dose 5 mg kg-1, route intraperitoneal; settings: mouse, plasma, ip
CYP2D6 = CYP2D6 (Homo sapiens, UniProt P10635); assay: Percent inhibition of CYP450 2D6 at 1uM concentration; format: ADME
Sequence of CYP2D6 (P10635 whole entry): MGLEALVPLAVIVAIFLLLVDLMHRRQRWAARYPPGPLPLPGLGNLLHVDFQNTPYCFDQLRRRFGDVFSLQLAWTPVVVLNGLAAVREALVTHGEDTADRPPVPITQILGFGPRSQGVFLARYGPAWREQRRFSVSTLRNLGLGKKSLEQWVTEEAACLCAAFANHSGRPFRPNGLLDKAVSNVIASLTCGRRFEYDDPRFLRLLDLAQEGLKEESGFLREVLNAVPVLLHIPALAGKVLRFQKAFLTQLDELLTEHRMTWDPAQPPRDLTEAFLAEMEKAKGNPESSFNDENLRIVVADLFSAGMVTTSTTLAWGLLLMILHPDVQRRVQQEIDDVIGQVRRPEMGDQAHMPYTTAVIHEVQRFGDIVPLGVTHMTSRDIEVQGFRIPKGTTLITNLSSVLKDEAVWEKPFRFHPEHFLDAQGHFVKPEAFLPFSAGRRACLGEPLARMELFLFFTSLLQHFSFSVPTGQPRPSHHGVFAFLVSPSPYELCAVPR

[2] = (§1) AUC after oral dosing at 5 mg kg-1; format: ADME, organism-based; design: dose 5 mg kg-1, route oral; settings: rat, plasma
CYP2C19 = CYP2C19 (Homo sapiens, UniProt P33261); assay: Percent inhibition of CYP450 2C19 at 1 uM concentration; format: ADME
Sequence of CYP2C19 (P33261 whole entry): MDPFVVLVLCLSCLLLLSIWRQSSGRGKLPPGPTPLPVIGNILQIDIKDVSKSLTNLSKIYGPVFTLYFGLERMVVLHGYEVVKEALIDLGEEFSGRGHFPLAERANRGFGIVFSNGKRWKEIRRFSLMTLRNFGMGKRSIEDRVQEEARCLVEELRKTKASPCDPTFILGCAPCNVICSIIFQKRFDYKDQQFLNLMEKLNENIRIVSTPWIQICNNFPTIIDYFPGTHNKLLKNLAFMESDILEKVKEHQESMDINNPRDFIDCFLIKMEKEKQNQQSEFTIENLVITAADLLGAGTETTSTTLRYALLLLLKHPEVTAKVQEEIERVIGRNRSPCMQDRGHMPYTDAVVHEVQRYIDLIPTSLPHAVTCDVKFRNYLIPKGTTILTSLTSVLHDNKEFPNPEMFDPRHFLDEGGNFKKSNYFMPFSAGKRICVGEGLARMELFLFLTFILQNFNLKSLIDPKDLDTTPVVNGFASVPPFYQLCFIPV

[3] = Bioavailability after i.p. dosing at 5 mg kg-1; format: ADME, organism-based; settings: mouse, in vivo, ip
[4] = Half life after i.v. dosing at 1 mg kg-1; format: ADME, organism-based; design: dose 1 mg kg-1, route intravenous; settings: in vivo, iv
[5] = Steady state volume of distribution (Vdss) after i.v. dosing at 1 mg kg-1; format: ADME, organism-based; design: dose 1 mg kg-1, route intravenous; settings: in vivo, iv, read-out: Vdss
CYP2C9 = CYP2C9 (Homo sapiens, UniProt P11712); assay: Percent inhibition of CYP450 2C9 at 1 uM concentration; format: ADME
Sequence of CYP2C9 (P11712 whole entry): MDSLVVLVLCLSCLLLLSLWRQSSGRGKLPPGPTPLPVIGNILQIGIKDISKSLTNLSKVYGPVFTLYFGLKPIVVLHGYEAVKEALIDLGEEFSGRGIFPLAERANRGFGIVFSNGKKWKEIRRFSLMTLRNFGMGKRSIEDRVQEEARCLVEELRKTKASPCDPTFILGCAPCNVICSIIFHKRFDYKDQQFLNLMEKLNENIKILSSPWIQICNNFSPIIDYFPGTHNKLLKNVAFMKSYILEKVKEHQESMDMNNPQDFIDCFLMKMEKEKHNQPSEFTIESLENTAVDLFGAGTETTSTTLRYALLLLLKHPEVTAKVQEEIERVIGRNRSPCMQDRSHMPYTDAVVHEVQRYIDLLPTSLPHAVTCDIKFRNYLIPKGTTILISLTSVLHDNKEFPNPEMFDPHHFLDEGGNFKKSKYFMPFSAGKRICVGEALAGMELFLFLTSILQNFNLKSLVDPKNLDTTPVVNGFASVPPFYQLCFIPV

[6] = (§2) Oral bioavailability after oral dosing at 5 mg kg-1; format: ADME, organism-based; settings: in vivo
[7] = (§3) Clearance after i.v. dosing at 1 mg kg-1; format: ADME, organism-based; design: dose 1 mg kg-1, route intravenous; settings: in vivo, iv
[8] = Microsome stability: percent compound remaining; format: ADME; settings: microsomes
[9] = as §1; format: ADME, organism-based, Plasma; design: dose 5 mg kg-1, route oral; settings: mouse, plasma
Cytochrome P450 3A4 = Cytochrome P450 3A4 (Homo sapiens, UniProt P08684); assay: Inhibition of CYP450 3A4; format: ADME
Sequence of Cytochrome P450 3A4 (P08684 whole entry): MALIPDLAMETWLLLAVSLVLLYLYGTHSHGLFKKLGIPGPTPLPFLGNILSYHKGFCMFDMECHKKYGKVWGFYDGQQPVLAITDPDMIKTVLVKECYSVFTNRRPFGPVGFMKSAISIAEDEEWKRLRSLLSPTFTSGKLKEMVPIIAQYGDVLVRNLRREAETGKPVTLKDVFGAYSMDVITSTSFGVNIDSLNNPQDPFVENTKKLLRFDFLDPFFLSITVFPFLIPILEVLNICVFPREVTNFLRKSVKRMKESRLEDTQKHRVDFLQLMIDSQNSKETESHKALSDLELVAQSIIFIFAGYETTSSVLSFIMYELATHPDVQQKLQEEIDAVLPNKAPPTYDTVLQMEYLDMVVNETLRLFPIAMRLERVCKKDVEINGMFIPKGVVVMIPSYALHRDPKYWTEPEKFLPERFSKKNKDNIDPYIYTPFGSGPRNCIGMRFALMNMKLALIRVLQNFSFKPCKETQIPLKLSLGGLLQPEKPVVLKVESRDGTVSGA

[10] = Permeability (Papp) run from pH 6.5-7.4; format: ADME, cell-based; settings: human, Caco-2, pH 6.5
CYP1A2 = biological target: T1, CYP1A2 (Homo sapiens, UniProt P05177); assay: Percent inhibition of CYP450 1A2 at 1 uM concentration; format: ADME
T1 sequence (P05177 whole entry): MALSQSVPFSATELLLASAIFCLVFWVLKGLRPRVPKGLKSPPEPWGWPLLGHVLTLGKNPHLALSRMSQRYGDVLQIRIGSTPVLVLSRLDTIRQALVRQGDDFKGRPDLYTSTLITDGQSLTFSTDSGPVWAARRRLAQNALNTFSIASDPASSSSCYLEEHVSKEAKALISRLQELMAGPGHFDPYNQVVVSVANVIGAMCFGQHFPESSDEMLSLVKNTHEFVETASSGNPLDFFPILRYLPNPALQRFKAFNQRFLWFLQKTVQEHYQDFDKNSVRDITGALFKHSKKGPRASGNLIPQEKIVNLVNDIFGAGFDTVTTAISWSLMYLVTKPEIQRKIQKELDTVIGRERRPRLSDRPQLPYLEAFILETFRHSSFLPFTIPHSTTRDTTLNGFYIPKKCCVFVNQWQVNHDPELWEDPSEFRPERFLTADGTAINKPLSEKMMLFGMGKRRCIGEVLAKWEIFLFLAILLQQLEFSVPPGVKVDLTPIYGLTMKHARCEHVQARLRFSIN

[11] = Hepatocyte stability; format: ADME, cell-based; settings: hepatocytes
Mus musculus [12] = assay: as §2; format: ADME, organism-based; settings: in vivo
Mus musculus [13] = assay: as §3; format: ADME, organism-based; design: dose 1 mg kg-1, route intravenous; settings: in vivo, iv
Mus musculus [14] = assay: as §1; format: ADME, organism-based, Plasma; design: dose 5 mg kg-1, route oral; settings: in vivo

Compound: O=C(NO)c1ccc(-c2ccc(CNCCc3ccc(F)cc3)cn2)s1
IC50 (Histone deacetylase 1): 9 nM
IC50 (MCF7): 80 nM
IC50 (HCT-116): 100 nM

Compound: O=C(NO)c1ccc(-c2ccc(CNCCc3ccccc3F)cn2)s1
IC50 (Histone deacetylase 1): 12 nM
IC50 (MCF7): 90 nM
IC50 (HCT-116): 100 nM

Compound: O=C(NO)c1ccc(-c2ccc(CNCc3ccc4c(c3)OCO4)cn2)s1
IC50 (Histone deacetylase 1): 8 nM
IC50 (MCF7): 50 nM
IC50 (HCT-116): 70 nM

Compound: CN(Cc1ccccc1)Cc1ccc(-c2ccc(C(=O)NO)s2)nc1
IC50 (Histone deacetylase 1): 35 nM
IC50 (MDA-MB-231): 370 nM
IC50 (MCF7): 150 nM

Compound: O=C(NO)c1ccc(-c2ccc(CCNCc3ccccc3)cn2)s1
IC50 (Histone deacetylase 1): 9 nM
IC50 (MDA-MB-231): 210 nM
IC50 (MCF7): 80 nM

Compound: O=C(NO)c1ccc(-c2ccc(CNCCc3cccc4occc34)cn2)s1
IC50 (Histone deacetylase 1): 4 nM
IC50 (MCF7): 60 nM
IC50 (HCT-116): 120 nM

Compound: O=C(NO)c1ccc(-c2ccc(CNCCCc3ccccc3)cn2)s1
IC50 (Histone deacetylase 1): 18 nM
IC50 (MDA-MB-231): 250 nM
IC50 (MCF7): 120 nM

Compound: O=C(NO)c1ccc(-c2ccc(CNCCc3ccccc3)cn2)s1
IC50 (Histone deacetylase 1): 12 nM
IC50 (MDA-MB-231): 200 nM
IC50 (MCF7): 70 nM

Compound: O=C(NO)c1ccc(-c2ccc(CCNCc3ccc4c(c3)OCO4)cn2)s1
IC50 (Histone deacetylase 1): 9 nM
IC50 (MCF7): 70 nM
IC50 (HCT-116): 110 nM

Compound: O=C(NO)c1ccc(-c2ccn(CCNCc3ccc4c(c3)OCO4)n2)s1
AUC [1]: 7200 ng·h/mL
inhibition at 1 µM (CYP2D6): 8%
AUC [2]: 100 ng·h/mL
inhibition at 1 µM (CYP2C19): 71%
bioavailability [3]: 85%
half-life ([4]; mouse): 2.5 h
half-life ([4]; rat): 1.6 h
Vd ([5]; mouse): 0.4 L/kg
Vd ([5]; rat): 0.9 L/kg
inhibition at 1 µM (CYP2C9): 0%
F (Mus musculus [12]): 1%
bioavailability ([6]; rat): 2%
CL (Mus musculus [13]): 10 mL/min/kg
clearance ([7]; rat): 21 mL/min/kg
Percent remaining ([8]; human): 55%
Percent remaining ([8]; mouse): 5%
AUC (Mus musculus [14]): 900 ng·h/mL
IC50 (Cytochrome P450 3A4): 53000 nM
Papp [10]: 4.2 ×10⁻⁶ cm/s
inhibition at 1 µM (CYP1A2): 9%
Hepatocyte stability ([11]; human): 15 uL/min/10e6 cells
Hepatocyte stability ([11]; rat): 26 uL/min/10e6 cells

Second part, the compound after the results:

IC50 (Histone deacetylase 1): 1130 nM
Compound: O=C(NO)c1ccc(-c2cccnc2)s1

IC50 (Histone deacetylase 1): 243 nM
IC50 (MDA-MB-231): 11000 nM
IC50 (MCF7): 2250 nM
Compound: O=C(NO)c1ccc(-c2ccccn2)s1

AUC [1]: 1250 ng·h/mL
IC50 (Histone deacetylase 1): 16 nM
inhibition at 1 µM (CYP2D6): 1%
IC50 (MDA-MB-231): 220 nM
IC50 (MCF7): 80 nM
AUC [2]: 3300 ng·h/mL
inhibition at 1 µM (CYP2C19): -4%
bioavailability [3]: 100%
half-life ([4]; mouse): 0.17 h
half-life ([4]; rat): 2.7 h
Vd ([5]; mouse): 1.1 L/kg
Vd ([5]; rat): 2.9 L/kg
inhibition at 1 µM (CYP2C9): -14%
bioavailability ([6]; mouse): 36%
bioavailability ([6]; rat): 50%
clearance ([7]; mouse): 83 mL/min/kg
clearance ([7]; rat): 13 mL/min/kg
Percent remaining ([8]; human): 88%
Percent remaining ([8]; mouse): 35%
AUC [9]: 360 ng·h/mL
IC50 (Cytochrome P450 3A4): 26000 nM
Papp [10]: 15.4 ×10⁻⁶ cm/s
inhibition at 1 µM (CYP1A2): 17%
IC50 (HCT-116): 110 nM
Hepatocyte stability ([11]; human): 7 uL/min/10e6 cells
Hepatocyte stability ([11]; rat): 27 uL/min/10e6 cells
Compound: O=C(NO)c1ccc(-c2ccc(CNCc3ccccc3)cn2)s1

IC50 (Histone deacetylase 1): 14 nM
IC50 (MCF7): 60 nM
IC50 (HCT-116): 60 nM
Compound: Cc1ccc(CCNCc2ccc(-c3ccc(C(=O)NO)s3)nc2)cc1

IC50 (Histone deacetylase 1): 900 nM
IC50 (MCF7): 31000 nM
Compound: O=C(NO)c1ccc(-c2ccccc2)s1

IC50 (Histone deacetylase 1): 2500 nM
IC50 (MCF7): > 100000 nM
Compound: O=C(NO)c1ccc(-c2cccs2)s1

IC50 (Histone deacetylase 1): 1260 nM
Compound: O=C(NO)c1ccc(-c2ccncc2)s1

IC50 (Histone deacetylase 1): 186 nM
IC50 (MCF7): 2120 nM
Compound: O=C(NO)c1ccc(-c2ncccn2)s1
